Where two headings read alike, the source gives them in different places.
Legend:
[1] = system: K562; assay: Cell growth assay, K562; assay type: cell-based; settings: Homo sapiens
Experimental: All media was supplemented with 100 U/mL penicillin and 100 μg/mL streptomycin. Human cancer cell lines were grown in the following media: MV4; 11, K562, MOLM-14 in RPMI-1640, 10% FBS; SKNO-1 in RPMI-1640, 10% FBS, and 10 ng/mL GM-CSF; MV4;11 and K562 were from ATCC. SKNO-1 was from DSMZ.
Cell Culture. All media was supplemented with 100 U/mL penicillin and 100 μg/mL streptomycin. Human cancer cell lines were grown in the following media: MV4; 11, RS4; 11, K562, HEL, MOLM-14, MEG-01 in RPMI-1640, 10% FBS; SET-2 in RPMI-1640, 20% FBS; UKE-1 in RPMI-1640, 10% FBS, 10% horse serum and 1 μM hydrocortisone; SKNO-1 and TF-1 in RPMI-1640, 10% FBS, and 10 or 2 ng/mL GM-CSF, respectively; HaCaT in DMEM, 10% FBS; and HCT116 in McCoy's 5 A, 10% FBS (proliferation assay) or DMEM, 10% FBS (gene expression study). HepG2, MV4;11, RS4;11, MEG-01, TF-1, HCT116 and K562 were from ATCC. SKNO-1 was from DSMZ. HEL, UKE-1, and SET-2 were provided by Ross L. Levine and HaCaT, MV4;11-mCLP, and MOLM-14 by Van Wilson, Andrew L. Kung, and Scott A. Armstrong, respectively. MOLM-14 cells were authenticated by STR profiling and flow cytometry and all cell lines were routinely tested and found to be negative for mycoplasma.

[2] = Pharmacokinetic study in mice; assay type: in vivo; settings: once-daily intraperitoneal (IP) dosing
Experimental: In Vivo Studies. Studies were performed at Charles River Laboratories (CRL) and Dana Farber Cancer Institute (DFCI) where indicated and approved by Harvard University and each institution's respective animal care and use committee. For pharmacokinetic studies, serial blood samples from 7 week old male CD-1 mice (n=3 per timepoint) were collected (no blinding) into K2EDTA tubes, centrifuged, transferred into 96-well plates (matrix tubes), stored at −20° C., and analysed by HPLC/MS/MS (in-life performed at CRL). Study size was determined by the need for three blood samples per timepoint with three blood samples collected per mouse. The MV4; 11 xenograft model were performed as previously described (Etchin, J. et al. Antileukemic activity of nuclear export inhibitors that spare normal hematopoietic cells. Leukemia 27, 66-74 (2013); in-life performed at DFCI) Two million MV4;11-mCLP cells were injected into the tail vein of 7-week-old female NOD-SCID-IL2Rcγ^null (NSG) mice (The Jackson Laboratory) and tumor burden was assessed by bioluminescence imaging (BLI) using an IVIS Spectrum system (Caliper Life Sciences). […] After 30 days, blood counts were obtained (Hemavet 950 F, Drew Scientific) and spleen, femur, and peripheral blood cells were collected and analysed by flow cytometry (LSR Fortessa, BD Biosciences) from 3 mice/group. […]

CN(C)[C@H]1C[C@@]23CC[C@@]4(O2)C(=CC[C@@]2(C)[C@@H](c5ccc6ccncc6c5)CC[C@H]24)C=C3[C@@H](O)[C@@H]1O [CA, cortistatin A]
GI50 ([1]; K562, 240 h, CA, after 10 days, read-out: Mean GI50 (nM), K562): > 1000 nM | GI50 ([1]; K562, 240 h, read-out: K562 GI50 day 10): > 1000 nM | GI50 ([1]; K562, Table 5, read-out: GI50 (nM), K562): > 1000 nM | pharmacokinetic properties [2]: acceptable pharmacokinetic properties
